Measured values as given in ChEMBL document CHEMBL1124148 (J Med Chem, 1988).

Tests used:
[1] = Inhibition of FPGS from mouse liver in the presence of folic acid; assay type: functional
[2] = target: T1, Dihydrofolate reductase (Mus musculus, UniProt P00375)
T1 sequence (P00375 whole entry): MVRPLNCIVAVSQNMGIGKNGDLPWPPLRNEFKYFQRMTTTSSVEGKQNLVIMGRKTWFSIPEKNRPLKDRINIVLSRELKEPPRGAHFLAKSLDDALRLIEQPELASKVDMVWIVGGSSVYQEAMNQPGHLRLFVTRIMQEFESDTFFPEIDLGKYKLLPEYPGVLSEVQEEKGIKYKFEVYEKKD
Description: Inhibition of dihydrofolate reductase (DHFR) from murine leukemia cells

[3] = system: L1210; assay: Inhibitory concentration against growth of L1210 cell line; assay type: functional, cell-based; conditions: Mus musculus
[4] = system: L1210 ( R81); assay: Inhibitory concentration against growth of L1210/R81 cell line; assay type: functional, cell-based; conditions: Mus musculus
[5] = system: SCC-15; assay: Inhibitory concentration against growth of SCC15/R1 cell line; assay type: functional, cell-based; conditions: Homo sapiens
[6] = system: SCC-15; assay: Inhibitory concentration against growth of SCC15 cell line; assay type: functional, cell-based; conditions: Homo sapiens
[7] = system: SCC-25; assay: Inhibitory concentration against growth of SCC25/R1 cell line; assay type: functional, cell-based; conditions: Homo sapiens
[8] = system: SCC-25; assay: Inhibitory concentration against growth of SCC25 cell line; assay type: functional, cell-based; conditions: Homo sapiens
[9] = Cell-growth inhibition against SCC15 cell line; assay type: functional, cell-based; conditions: Homo sapiens, SCC-15
[10] = Cell-growth inhibition against SCC25 cell line; assay type: functional, cell-based; conditions: Homo sapiens, SCC-25
[11] = Cell-growth inhibition against SCC25/R1 cell line; assay type: functional, cell-based; conditions: Homo sapiens, SCC-25
[12] = Cell-growth inhibition against SCC15/R1 cell line; assay type: functional, cell-based; conditions: Homo sapiens, SCC-15

SMILES	Ki [1] [µM]	IC50 [2] [µM]	IC50 [3] [µM]	IC50 [4] [µM]	other results
Nc1nc(N)c2nc(CNc3ccc(C(=O)NC(CCCNC(=O)CCC(=O)O)C(=O)O)cc3)cnc2n1 (stereo not given)	44	–	–	–	–
Nc1nc(N)c2nc(CNc3ccc(C(=O)NC(CCCNC(=O)c4ccc(Cl)cc4)C(=O)O)cc3)cnc2n1 (stereo not given)	–	0.028	0.0032	27	–
CN(Cc1cnc2nc(N)nc(N)c2n1)c1ccc(C(=O)N[C@@H](CCC(=O)O)C(=O)O)cc1 [METHOTREXATE]	–	–	–	200	IC50 [5]: 0.58 µM; IC50 [6]: 0.038 µM; IC50 [7]: 0.15 µM; IC50 [8]: 0.0075 µM
Nc1nc(N)c2nc(CNc3ccc(C(=O)N[C@@H](CCCNC(=O)c4ccc(Cl)c(Cl)c4)C(=O)O)cc3)cnc2n1	–	0.045	0.032	–	–
CN(Cc1cnc2nc(N)nc(N)c2n1)c1ccc(C(=O)NC(CCC(=O)OC(C)(C)C)C(=O)O)cc1 (stereo not given)	–	–	–	–	IC50 [9]: 0.6 µM; IC50 [10]: 0.4 µM; IC50 [11]: 0.78 µM; IC50 [12]: 1.3 µM
Nc1nc(N)c2nc(CNc3ccc(C(=O)NC(CCCNC(=O)c4ccccc4)C(=O)O)cc3)cnc2n1 (stereo not given)	> 100	0.027	0.00089	17	–
Nc1nc(N)c2nc(CNc3ccc(C(=O)NC(CCCNC(=O)c4ccccc4C(=O)O)C(=O)O)cc3)cnc2n1 (stereo not given)	–	–	0.00075	–	IC50 [9]: 0.0011 µM; IC50 [10]: 0.00096 µM; IC50 [11]: 0.0013 µM; IC50 [12]: 0.004 µM

More lines, main results first:

Ki [1] [µM]	IC50 [2] [µM]	IC50 [3] [µM]	IC50 [4] [µM]	SMILES	other results
> 100	–	–	–	Nc1nc(N)c2nc(CN(C=O)c3ccc(C(=O)NC(CCCNC(=O)CCC(=O)O)C(=O)O)cc3)cnc2n1 (stereo not given)	–
> 1000	0.034	0.02	156	Nc1nc(N)c2nc(CN(C=O)c3ccc(C(=O)NC(CCCNC(=O)c4ccccc4)C(=O)O)cc3)cnc2n1 (stereo not given)	–
> 100	0.015	0.2	> 200	Nc1nc(N)c2nc(CN(C=O)c3ccc(C(=O)NC(CCCNC(=O)c4ccc(Cl)cc4)C(=O)O)cc3)cnc2n1 (stereo not given)	–
0.65	–	–	–	NCCCC(NC(=O)c1ccc(N(C=O)Cc2cnc3nc(N)nc(N)c3n2)cc1)C(=O)O (stereo not given)	–
0.15	–	–	–	NCCCC(NC(=O)c1ccc(NCc2cnc3nc(N)nc(N)c3n2)cc1)C(=O)O (stereo not given)	–
68	0.028	0.017	81	CC(=O)NCCCC(NC(=O)c1ccc(NCc2cnc3nc(N)nc(N)c3n2)cc1)C(=O)O (stereo not given)	–
–	0.056	3.2	> 200	Nc1nc(N)c2nc(CN(C=O)c3ccc(C(=O)NC(CCCNC(=O)c4ccc(Cl)c(Cl)c4)C(=O)O)cc3)cnc2n1 (stereo not given)	–
–	0.053	0.41	230	CC(=O)NCCCC(NC(=O)c1ccc(N(C=O)Cc2cnc3nc(N)nc(N)c3n2)cc1)C(=O)O (stereo not given)	–
